Experimental data published in US9115092B2, “Substituted quinazoline and pyrido-pyrimidine derivatives” (Asana Biosciences, LLC, priority 2010, dated 2015).

Legend:
[1] = biological target: T1, PI3Kα (wild-type), P110/P85α (Homo sapiens, UniProt P42336); test: PI3 Kinase TR-FRET assay, PI3Kα (wild-type); type: biochemical
T1 construct: made in house; host or cells: SF9 insect cells
Protocol: The ability of compounds of the invention to inhibit PI3K activity was determined in a homogeneous TR-FRET assay using a PI3K assay kit (Millipore, USA; cat #33-016) according to manufacturer's instructions. PI3-Kinases (isoforms α, β, γ and δ) catalyze the phosphorylation of phosphatidylinositol, PIP2 to PIP3 in the presence of ATP and Mg^2+. The PIP3 product is detected by displacement of biotin-PIP3 from an energy transfer complex consisting of Europium labeled anti-GST monoclonal antibody, a GST-tagged PH domain, biotinylated PIP3 and Streptavidin-APC. Excitation of Europium in the complex results in an energy transfer to the APC and a fluorescence emission at 665 nm. The PIP3 product displaces biotin-PIP3 from the complex resulting in a loss of energy transfer and thus a decrease in signal.
To test for the ability of compounds to inhibit the activity of PI3Kα (wild-type), exemplary compounds of formula (I) were dissolved in DMSO and directly distributed into 384-well plates at a volume of 0.5 μL. 14.5 μL of P110/P85α/PIP2 mixture in buffer (obtained from the Millipore kit) containing MgCl2 (40 mM) and DTT (5 mM) was added to compound wells and incubated for 60 min at room temperature. P110/P85α was expressed in SF9 insect cells and purified nickel column extraction. Five ng of wild-type P110/P85α was used in the assay. The kinase reaction was started by the addition of ATP. The assay concentrations of both PIP2 and ATP were 10 μM. The reaction mixture was incubated for 30 min at room temperature and was terminated by the addition of stop mix and detection mix. Fluorescence was measured at 615 and 665 nm upon excitation at 340 nm in a Victor™ V5 fluorometer (Perkin Elmer, USA). The fluorescence emission ratio at 665 to 615 nm, proportional to the kinase activity, was plotted against the compound concentration to generate dose-response curves and IC50 values were determined using GraphPad Prism® 5 software.

mTOR kinase = biological target: T2, mTOR kinase (Homo sapiens, UniProt P42345); test: mTOR kinase TR-FRET assay; type: biochemical; settings: read-out: mTO R
T2 construct: purchased Millipore, USA
Protocol: Compound inhibition for mTOR kinase was determined in a homogeneous TR-FRET assay using the Lance® ULight-p70 S6K (Thr 389) peptide (obtained from Perkin-Elmer). The ULight™-labeled synthetic peptide contains the amino acid residues surrounding Thr389 of human p70 S6K. The ULight-p70 S6K peptide is phosphorylated at Thr389 by mTOR. Phosphorylation motif: LGFTYVAP as substrate.
The compound dilution was carried out in 100% DMSO followed by a buffer dilution. The reaction buffer was HEPES (50 mM pH 7.5), EGTA (1 mM), MnCl2 (3 mM). Test compounds at various concentrations were pre-incubated with mTOR (Millipore, USA; 5 ng) for 60 min, and then the Lance® ULight-p70 S6K (Thr 389) peptide (50 nM) was added along with ATP (20 μM). After incubating the reaction mixture for 60 min at room temperature, the kinase reaction was terminated by the addition of EDTA (10 mM) followed by the addition of detection mix, i.e., 1 nM Eu-labeled anti-phospho-substrate antibody (Perkin Elmer, USA). The fluorescence emission at […] was measured upon excitation at 340 nm. IC50 values were subsequently determined using a sigmoidal dose-response curve (variable slope) in GraphPad Prism® 5 software.
Compounds of formula (I) caused inhibition of mTOR kinase activity as determined by this assay.

T1 sequence (P42336 whole entry): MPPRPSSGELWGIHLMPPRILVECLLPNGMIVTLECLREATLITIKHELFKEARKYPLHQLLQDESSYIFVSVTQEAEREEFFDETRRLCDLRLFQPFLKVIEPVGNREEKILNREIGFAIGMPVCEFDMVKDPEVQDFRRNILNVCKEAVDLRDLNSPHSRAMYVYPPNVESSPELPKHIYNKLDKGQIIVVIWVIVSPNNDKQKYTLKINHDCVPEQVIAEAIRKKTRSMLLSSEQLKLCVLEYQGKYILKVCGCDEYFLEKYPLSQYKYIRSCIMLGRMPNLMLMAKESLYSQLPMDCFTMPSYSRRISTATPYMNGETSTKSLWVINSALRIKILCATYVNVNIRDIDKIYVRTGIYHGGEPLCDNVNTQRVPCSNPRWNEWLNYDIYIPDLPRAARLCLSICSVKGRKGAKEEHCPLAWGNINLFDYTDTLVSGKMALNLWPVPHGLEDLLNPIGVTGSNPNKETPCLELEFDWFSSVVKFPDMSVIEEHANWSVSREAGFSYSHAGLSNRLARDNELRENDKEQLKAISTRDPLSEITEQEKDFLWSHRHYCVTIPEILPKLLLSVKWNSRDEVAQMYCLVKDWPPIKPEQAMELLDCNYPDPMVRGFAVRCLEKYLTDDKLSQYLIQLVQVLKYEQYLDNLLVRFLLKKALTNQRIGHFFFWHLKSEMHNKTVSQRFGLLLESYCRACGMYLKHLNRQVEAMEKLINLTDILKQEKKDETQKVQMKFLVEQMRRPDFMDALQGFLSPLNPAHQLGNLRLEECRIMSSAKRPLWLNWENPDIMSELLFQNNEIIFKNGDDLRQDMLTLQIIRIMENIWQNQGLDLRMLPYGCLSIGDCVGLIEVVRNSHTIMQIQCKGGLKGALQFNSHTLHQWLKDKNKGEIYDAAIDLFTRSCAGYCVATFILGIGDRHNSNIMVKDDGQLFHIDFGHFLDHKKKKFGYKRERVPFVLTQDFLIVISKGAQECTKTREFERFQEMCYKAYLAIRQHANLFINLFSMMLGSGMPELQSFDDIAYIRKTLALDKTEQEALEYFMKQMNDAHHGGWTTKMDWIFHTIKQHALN
T1 sequence (P27986 whole entry partner): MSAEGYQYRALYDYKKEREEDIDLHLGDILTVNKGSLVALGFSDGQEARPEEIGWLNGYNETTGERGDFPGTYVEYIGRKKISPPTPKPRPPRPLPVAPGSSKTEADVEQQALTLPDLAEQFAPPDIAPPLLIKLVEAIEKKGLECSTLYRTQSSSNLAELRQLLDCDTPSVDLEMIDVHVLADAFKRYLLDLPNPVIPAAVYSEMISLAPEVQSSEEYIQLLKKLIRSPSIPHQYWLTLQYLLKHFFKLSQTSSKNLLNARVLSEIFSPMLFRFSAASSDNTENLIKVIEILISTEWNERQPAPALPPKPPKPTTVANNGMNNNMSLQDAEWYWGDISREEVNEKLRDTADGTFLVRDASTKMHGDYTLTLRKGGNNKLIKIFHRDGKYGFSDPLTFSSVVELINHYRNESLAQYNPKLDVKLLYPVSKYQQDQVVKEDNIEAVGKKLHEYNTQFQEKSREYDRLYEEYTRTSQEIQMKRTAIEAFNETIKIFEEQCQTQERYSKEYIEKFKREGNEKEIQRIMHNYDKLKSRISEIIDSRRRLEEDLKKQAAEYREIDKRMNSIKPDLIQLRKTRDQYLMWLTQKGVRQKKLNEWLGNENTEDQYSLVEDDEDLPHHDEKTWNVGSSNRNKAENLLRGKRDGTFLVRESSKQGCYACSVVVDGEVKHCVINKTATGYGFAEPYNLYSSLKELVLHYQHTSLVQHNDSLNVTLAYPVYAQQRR

IC50 [1] [µM] | IC50 (mTOR kinase) [µM] | SMILES
< 0.05 | < 0.05 | CN(C)C(=O)c1ccc(NC(=O)Nc2ccc(-c3nc(N4CCOCC4)c4ncc(-c5cnn(C)c5)cc4n3)cc2)cc1F [Example 273, 2-fluoro-N,N-dimethyl-4-(3-(4-(7-(1-methyl-1H-pyrazol-4-yl)-4-morpholino-pyrido[3,2-d]pyrimidin-2-yl)phenyl)ureido)-benzamide]
< 0.05 | 0.05 to 0.2 | CN(C)C(=O)c1ccc(NC(=O)Nc2ccc(-c3nc(N4CCOCC4)c4cc(F)c(-c5cncnc5)cc4n3)cn2)cc1 [Example 176, 4-(3-(5-(6-fluoro-4-morpholino-7-(pyrimidin-5-yl)quinazolin-2-yl)pyridin-2-yl)ureido)-N,N-dimethyl-benzamide]
– | < 0.05 | O=C(Nc1ccc(-c2nc(N3CCOCC3)c3ccc(-c4cccnc4F)cc3n2)cc1)Nc1ccc(N2CCCC2=O)cc1 [Example 292, 1-(4-(7-(2-fluoropyridin-3-yl)-4-morpholinoquinazolin-2-yl)phenyl)-3-(4-(2-oxopyrrolidin-1-yl)phenyl)urea]
< 0.05 | < 0.05 | Cc1ccc(-c2ccc3c(N4CCOCC4)nc(-c4ccc(NC(=O)Nc5ccc(C(=O)N(C)C)cc5)cc4)nc3c2)cn1 [Example 161, N,N-dimethyl-4-(3-(4-(7-(6-methylpyridin-3-yl)-4-morpholino-quinazolin-2-yl)phenyl)ureido)-benzamide]
< 0.05 | < 0.05 | Cc1ccc(-c2ccc3c(N4CCOCC4)nc(-c4ccc(NC(=O)Nc5ccc(C(=O)N(C)C)cc5)cc4F)nc3c2)cn1 [Example 271, 4-(3-(3-fluoro-4-(7-(6-methylpyridin-3-yl)-4-morpholino-quinazolin-2-yl)phenyl)ureido)-N,N-dimethyl-benzamide]
< 0.05 | < 0.05 | CN(C)C(=O)c1ccc(NC(=O)Nc2ccc(-c3nc(N4CCOCC4)c4ncc(-c5cccnc5)cc4n3)cc2)cc1F [Example 264, 2-fluoro-N,N-dimethyl-4-(3-(4-(4-morpholino-7-(pyridin-3-yl)pyrido[3,2-d]pyrimidin-2-yl)phenyl)ureido)-benzamide]
0.05 to 0.2 | < 0.05 | CN(C)C(=O)c1ccc(NC(=O)Nc2ccc(-c3nc(N4CCOCC4)c4ccc(-c5cnc(N(C)C)nc5)cc4n3)cc2F)cc1 [Example 231, 4-(3-(4-(7-(2-(dimethylamino)pyrimidin-5-yl)-4-morpholino-quinazolin-2-yl)-2-fluorophenyl)ureido)-N,N-dimethyl-benzamide]
0.201 to 10 | < 0.05 | CN(C)C(=O)c1ccc(NC(=O)Nc2ccc(-c3nc(N4CCOCC4)c4ccc(-c5cnc(N)nc5)cc4n3)cc2F)cc1 [Example 110, 4-(3-(4-(7-(2-aminopyrimidin-5-yl)-4-morpholino-quinazolin-2-yl)-2-fluorophenyl)ureido)-N,N-dimethyl-benzamide]
0.201 to 10 | 0.05 to 0.2 | Cc1ccc(-c2ccc3c(N4CCOCC4)nc(-c4ccc(NC(=O)Nc5ccc(C(=O)N(C)C)cc5)c(F)c4)nc3c2)o1 [Example 8, 4-(3-{2-Fluoro-4-[7-(5-methyl-furan-2-yl)-4-morpholin-4-yl-quinazolin-2-yl]-phenyl}ureido)dimethyl-benzamide]
< 0.05 | 0.201 to 10 | COc1ncc(-c2ccc3c(N4CCOCC4)nc(-c4ccc(NC(=O)Nc5ccc(C(=O)N(C)C)cc5)nc4)nc3c2)cn1 [Example 119, 4-(3-(5-(7-(2-methoxypyrimidin-5-yl)-4-morpholino-quinazolin-2-yl)pyridin-2-yl)ureido)-N,N-dimethyl-benzamide]
< 0.05 | < 0.05 | Cc1nn(C)c(C)c1-c1ccc2c(N3CCOCC3)nc(-c3ccc(NC(=O)Nc4ccc(C(=O)N(C)C)cc4)cc3)nc2c1 [Example 162, N,N-dimethyl-4-(3-(4-(4-morpholino-7-(1,3,5-trimethyl-1H-pyrazol-4-yl)quinazolin-2-yl)phenyl)ureido)-benzamide]
0.05 to 0.2 | 0.201 to 10 | Cc1ccc(-c2ccc3c(N4CCOCC4)nc(-c4ccc(NC(=O)Nc5ccc(C(=O)N(C)C)cc5)cc4)nc3c2)s1 [Example 61, N,N-dimethyl-4-(3-{4-[7-(5-methyl-thiophen-2-yl)-4-morpholin-4-yl-quinazolin-2-yl]-phenyl}-ureido)-benzamide]
< 0.05 | < 0.05 | CN(C)C(=O)c1ccc(NC(=O)Nc2ccc(-c3nc(N4CCOCC4)c4ccc(-c5cnc(N(C)C)nc5)cc4n3)c(F)c2)cc1 [Example 277, 4-(3-(4-(7-(2-(dimethylamino)pyrimidin-5-yl)-4-morpholino-quinazolin-2-yl)-3-fluorophenyl)ureido)-N,N-dimethyl-benzamide]
< 0.05 | < 0.05 | CN(C)C(=O)c1ccc(NC(=O)Nc2ccc(-c3nc(N4CCOCC4)c4ccc(-c5ccc(CO)o5)cc4n3)cc2)cc1F [Example 278, 2-fluoro-4-(3-(4-(7-(5-(hydroxymethyl)furan-2-yl)-4-morpholino-quinazolin-2-yl)phenyl)ureido)-N,N-dimethyl-benzamide]
< 0.05 | 0.05 to 0.2 | CN(C)C(=O)c1ccc(NC(=O)Nc2ccc(-c3nc(N4CCOCC4)c4ccc(-c5cccc(N(C)C)c5)cc4n3)cc2)cc1 [Example 50, 4-(3-{4-[7-(3-dimethylamino-phenyl)-4-morpholin-4-yl-quinazolin-2-yl]-phenyl}-ureido)-N,N-dimethyl-benzamide]
< 0.05 | < 0.05 | Cc1ccc(-c2ccc3c(N4CCOCC4)nc(-c4ccc(NC(=O)Nc5ccc(C(=O)N(C)C)cc5F)cc4)nc3c2)cn1 [Example 166, 3-fluoro-N,N-dimethyl-4-(3-(4-(7-(6-methylpyridin-3-yl)-4-morpholino-quinazolin-2-yl)phenyl)ureido)-benzamide]
< 0.05 | 0.201 to 10 | CN(C)C(=O)c1ccc(NC(=O)Nc2ccc(-c3nc(N4CCOCC4)c4ccc(-c5cncnc5)cc4n3)cn2)c(F)c1 [Example 140, 3-fluoro-N,N-dimethyl-4-(3-(5-(4-morpholino-7-(pyrimidin-5-yl)quinazolin-2-yl)pyridin-2-yl)ureido)-benzamide]
< 0.05 | < 0.05 | CN(C)C(=O)c1ccc(NC(=O)Nc2ccc(-c3nc(N4CCOCC4)c4ncc(-c5cccnc5F)cc4n3)cc2)cc1 [Example 78, 4-(3-{4-[7-(2-fluoro-pyridin-3-yl)-4-morpholin-4-yl-pyrido[3,2-d]pyrimidin-2-yl]-phenyl}-ureido)-N,N-dimethyl-benzamide]
0.201 to 10 | 0.201 to 10 | Cc1ccc(-c2ccc3c(N4CCOCC4)nc(-c4ccc(NC(=O)Nc5ccc(C(=O)N(C)C)cc5F)cc4)nc3c2)o1 [Example 136, 3-fluoro-N,N-dimethyl-4-(3-(4-(7-(5-methylfuran-2-yl)-4-morpholino-quinazolin-2-yl)phenyl)ureido)-benzamide]
0.05 to 0.2 | 0.05 to 0.2 | COc1cccc(-c2ccc3c(N4CCOCC4)nc(-c4ccc(NC(=O)Nc5ccc(C(=O)N(C)C)cc5)cc4)nc3c2)c1 [Example 48, 4-(3-{4-[7-(3-methoxy-phenyl)-4-morpholin-4-yl-quinazolin-2-yl]-phenyl}-ureido)-N,N-dimethyl-benzamide]
< 0.05 | 0.201 to 10 | Cc1ccc(-c2ccc3c(N4CCOCC4)nc(-c4ccc(NC(=O)Nc5ccc(C(=O)N(C)C)cc5)nc4)nc3c2)o1 [Example 57, N,N-dimethyl-4-(3-{5-[7-(5-methyl-furan-2-yl)-4-morpholin-4-yl-quinazolin-2-yl]-pyridin-2-yl}-ureido)-benzamide]
